Test results published in US8217035B2, “Pyrimidine derivatives used as PI-3-kinase inhibitors” (Novartis AG, priority 2006, dated 2012).
pEC50, pIC50: −log10 of the molar value. Where two headings read alike, the source gives them in different places.

How the values were obtained:
PI3 kinase alpha = PI3 kinase alpha (Homo sapiens, UniProt P42336); assay: PI3K ATP depletion assay (Biological Method 1, Assay 3; KinaseGlo luminescence); format: biochemical; conditions: ATP depletion assay, read-out: PI3 Kinase Alpha, IC50
Sequence of PI3 kinase alpha (P42336 whole entry): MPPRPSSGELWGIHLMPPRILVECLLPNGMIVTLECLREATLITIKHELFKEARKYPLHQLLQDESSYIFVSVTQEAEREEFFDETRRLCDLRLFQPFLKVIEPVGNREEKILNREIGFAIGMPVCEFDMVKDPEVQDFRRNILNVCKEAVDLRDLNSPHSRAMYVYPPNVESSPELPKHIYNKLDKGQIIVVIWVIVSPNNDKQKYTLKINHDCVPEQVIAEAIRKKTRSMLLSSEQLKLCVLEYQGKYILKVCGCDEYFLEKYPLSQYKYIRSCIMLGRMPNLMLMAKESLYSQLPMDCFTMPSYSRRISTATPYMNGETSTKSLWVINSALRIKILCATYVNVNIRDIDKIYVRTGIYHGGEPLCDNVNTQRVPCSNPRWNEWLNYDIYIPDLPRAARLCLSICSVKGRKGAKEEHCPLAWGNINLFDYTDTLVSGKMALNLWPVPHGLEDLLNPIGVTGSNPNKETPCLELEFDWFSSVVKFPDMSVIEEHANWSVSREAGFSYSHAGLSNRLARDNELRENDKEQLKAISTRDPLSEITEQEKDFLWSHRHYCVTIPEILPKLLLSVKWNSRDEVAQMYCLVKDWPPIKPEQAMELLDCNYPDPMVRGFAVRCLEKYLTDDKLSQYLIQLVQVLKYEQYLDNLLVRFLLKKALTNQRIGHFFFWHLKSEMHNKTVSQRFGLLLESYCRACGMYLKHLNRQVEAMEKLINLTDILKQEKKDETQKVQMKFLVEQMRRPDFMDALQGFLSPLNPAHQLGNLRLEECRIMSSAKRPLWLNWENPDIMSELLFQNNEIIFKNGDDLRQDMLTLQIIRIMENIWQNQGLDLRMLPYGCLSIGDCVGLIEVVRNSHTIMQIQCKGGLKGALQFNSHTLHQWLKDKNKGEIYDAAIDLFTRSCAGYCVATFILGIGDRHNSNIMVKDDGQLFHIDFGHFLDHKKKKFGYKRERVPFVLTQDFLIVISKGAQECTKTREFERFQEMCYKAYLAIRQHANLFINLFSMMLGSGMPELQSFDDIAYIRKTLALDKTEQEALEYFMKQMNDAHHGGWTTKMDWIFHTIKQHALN
Sequence of PI3 kinase alpha (P27986 whole entry partner): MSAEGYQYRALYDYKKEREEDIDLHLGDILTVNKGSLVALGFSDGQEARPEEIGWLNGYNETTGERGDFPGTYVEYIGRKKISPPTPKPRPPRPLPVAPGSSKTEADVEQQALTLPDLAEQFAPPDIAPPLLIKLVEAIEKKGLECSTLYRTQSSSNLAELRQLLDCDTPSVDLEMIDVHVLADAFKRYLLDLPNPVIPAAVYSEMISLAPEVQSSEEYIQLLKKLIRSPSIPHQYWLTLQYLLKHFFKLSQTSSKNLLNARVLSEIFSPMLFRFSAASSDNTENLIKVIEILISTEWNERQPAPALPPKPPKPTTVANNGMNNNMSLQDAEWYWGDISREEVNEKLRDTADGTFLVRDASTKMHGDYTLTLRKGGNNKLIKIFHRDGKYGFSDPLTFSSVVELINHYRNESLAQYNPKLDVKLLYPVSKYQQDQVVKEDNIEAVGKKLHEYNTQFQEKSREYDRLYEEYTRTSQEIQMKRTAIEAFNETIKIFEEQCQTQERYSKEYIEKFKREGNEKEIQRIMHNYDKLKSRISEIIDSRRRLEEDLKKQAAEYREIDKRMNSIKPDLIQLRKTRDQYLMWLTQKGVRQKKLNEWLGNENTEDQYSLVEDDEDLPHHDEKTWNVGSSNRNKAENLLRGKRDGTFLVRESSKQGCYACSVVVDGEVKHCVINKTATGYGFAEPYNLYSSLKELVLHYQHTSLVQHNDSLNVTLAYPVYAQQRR
Summary of the method: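 Compound in DMSO was mixed with 10 nM PI3 kinase and 5 μg/mL phosphatidylinositol, and the reaction was started with 2 μM ATP. It ran to about 50% ATP depletion and was stopped with KinaseGlo.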

[1] = system: pSer473 Akt in A2780 cells; assay: pSer473 Akt assay to monitor PI3K pathway in A2780 cells (Biological Method 2, MSD); format: cell-based; conditions: Homo sapiens, inhibition of Akt phosphorylation
Summary of the method: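 A2780 ovarian cancer cells in DMEM/10% FBS were treated with compound for 1 h at 37 °C, then lysed. pSer473-Akt and total Akt were measured by MSD electrochemiluminescence immunoassay. The pSer473/total Akt ratio gave % inhibition versus DMSO, from which EC50 was derived.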

[2] = system: A2780 ovarian cancer cells; assay: Cellular proliferation in A2780 cells, Cell Titer Glo (Biological Method 4); format: cell-based; conditions: Homo sapiens
Summary of the method: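 Viability after 72 h compound exposure (37 °C, 5% CO2) was read by Cell Titer Glo and an EC50 derived, each condition in duplicate. A2780 ovarian cells had been plated at 1,000 per well in DMEM/10% FBS at least 2 h beforehand.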

[3] = ovarian cancer cell line A2780, Biological Method 4

| SMILES | pIC50 (PI3 kinase alpha) | pEC50 ([1]; A2780 cells) | pEC50 ([2]; ovarian cancer cell line A2780) | pIC50 (PI3 kinase alpha; Biological Method 1) | pEC50 ([1]; A2780, Biological Method 2) | pEC50 [2, 3] |
| --- | --- | --- | --- | --- | --- | --- |
| Nc1ccc(-c2cc(Nc3cnc4ccc(OCCN5CCCC5)cc4c3)nc(N3CCOCC3)n2)cn1 [Compound 181] | > 6.00 | > 6.00 | > 6.00 |  |  |  |
| Cc1cc(N)ncc1-c1cc(Nc2cnc3ccccc3c2)nc(N2CCOCC2)n1 [Compound 201] |  |  |  | > 6.00 | > 6.00 | > 6.00 |
| CCc1c(Nc2cnc3ccccc3c2)nc(N2CCOCC2)nc1-c1cnc(N)nc1 [Compound 98] | > 6.00 | > 6.00 | > 6.00 |  |  |  |
| Nc1ccc(-c2cc(Nc3cccc(-c4cnco4)c3)nc(N3CCOCC3)n2)cn1 [Compound 163] | > 6.00 | > 6.00 | > 5.00 |  |  |  |
| CCN(CC)Cc1cnc(Nc2cc(-c3cnc(N)nc3N)nc(N3CCOCC3)n2)s1 [Compound 59] | > 6.00 | > 6.00 | > 6.00 |  |  |  |
| Nc1ncc(-c2cc(Nc3ccc(F)cc3)nc(N3CCOCC3)n2)cn1 [Compound 123] | > 6.00 | > 6.00 | > 5.00 |  |  |  |
| N#Cc1cnc(Nc2cc(-c3cnc(N)cc3C(F)(F)F)nc(N3CCOCC3)n2)s1 [Compound 144] | > 6.00 | > 6.00 | > 5.00 |  |  |  |
| Nc1cc(C(F)(F)F)c(-c2cc(-c3nccs3)nc(N3CCOCC3)n2)cn1 [Compound 138] | > 6.00 | > 6.00 | > 5.00 |  |  |  |
| Nc1ccc(-c2cc(Nc3ccccc3S(N)(=O)=O)nc(N3CCOCC3)n2)cn1 [Compound 187] | > 6.00 | > 6.00 | > 5.00 |  |  |  |
| N#Cc1cc(N)ncc1-c1cc(Nc2ccncc2C(F)(F)F)nc(N2CCOCC2)n1 [Compound 94] | > 6.00 | > 6.00 | > 6.00 |  |  |  |
| Nc1ncc(-c2cc(N3CCOc4ccccc43)nc(N3CCOCC3)n2)cn1 [Compound 65] | > 6.00 | > 6.00 | > 6.00 |  |  |  |
| Cc1cc(Nc2cc(-c3cnc(N)cc3C(F)(F)F)nc(N3CCOCC3)n2)ccn1 [Compound 110] | > 6.00 | > 6.00 | > 6.00 |  |  |  |
| Nc1ccc(-c2cc(Nc3ccnc(Cl)c3)nc(N3CCOCC3)n2)cn1 [Compound 155] | > 6.00 | > 6.00 | > 5.00 |  |  |  |
| Nc1ncc(-c2cc(Nc3cccc(F)c3)nc(N3CCOCC3)n2)cn1 [Compound 111] | > 6.00 | > 6.00 | > 5.00 |  |  |  |
| N#Cc1ccc(Nc2cc(-c3ccc(N)nc3)nc(N3CCOCC3)n2)cc1 [Compound 179] | > 6.00 | > 6.00 | > 5.00 |  |  |  |
| CCc1c(Nc2cnc3ccccc3c2)nc(N2CCOCC2)nc1-c1ccc(N)nc1 [Compound 213] |  |  |  | > 6.00 | > 5.00 | > 6.00 |
| CS(=O)(=O)Nc1ncccc1-c1cc(-c2cnc(N)cc2C(F)(F)F)nc(N2CCOCC2)n1 [Compound 145] | > 6.00 | > 6.00 | > 5.00 |  |  |  |
| Nc1ncc(-c2cc(-c3cnc(N)nc3C(F)(F)F)nc(N3CCOCC3)n2)c(C(F)(F)F)n1 [Compound 121] | > 6.00 | > 6.00 | > 6.00 |  |  |  |
| Nc1cc(C(F)(F)F)c(-c2cc(Nc3ccncc3C(F)(F)F)nc(N3CCOCC3)n2)cn1 [Compound 153] | > 6.00 | > 6.00 | > 6.00 |  |  |  |
| Nc1ncc(-c2cc(Nc3ccc4nccnc4c3)nc(N3CCOCC3)n2)cn1 [Compound 38] | > 6.00 | > 6.00 | > 6.00 |  |  |  |
| COc1ccc2ncc(Nc3nc(N4CCOCC4)nc(-c4cnc(N)nc4)c3C)cc2c1 [Compound 177] | > 6.00 | > 6.00 | > 6.00 |  |  |  |

Next, values leading:

| pIC50 (PI3 kinase alpha) | pEC50 ([1]; A2780 cells) | pEC50 ([2]; ovarian cancer cell line A2780) | pIC50 (PI3 kinase alpha; Biological Method 1) | pEC50 ([1]; A2780, Biological Method 2) | pEC50 [2, 3] | SMILES |
| --- | --- | --- | --- | --- | --- | --- |
| > 6.00 | > 6.00 | > 6.00 |  |  |  | COc1ccc2ncc(Nc3cc(-c4cnc(N)nc4C)nc(N4CCOCC4)n3)cc2c1 [Compound 154] |
| > 6.00 | > 6.00 | > 5.00 |  |  |  | CC(C)OC(=O)N1CCC(Oc2cc(-c3cnc(N)nc3C(F)(F)F)nc(N3CCOCC3)n2)CC1 [Compound 115] |
| > 6.00 | > 6.00 | > 5.00 |  |  |  | CC(C)N1CCC(Oc2cncc(-c3cc(-c4cnc(N)cc4C(F)(F)F)nc(N4CCOCC4)n3)c2)C1 (stereo not drawn) [Compound 129] |
|  |  |  | > 6.00 | > 6.00 | > 5.00 | COc1ccc(Nc2cc(-c3cnc(N)cc3C(F)(F)F)nc(N3CCOCC3)n2)cn1 [Compound 199] |
| > 6.00 | > 6.00 | > 6.00 |  |  |  | Nc1ncc(-c2cc(OC3CCN(C(=O)c4ccccc4)CC3)nc(N3CCOCC3)n2)c(C(F)(F)F)n1 [Compound 124] |
| > 6.00 | > 6.00 | > 5.00 |  |  |  | CC(C)C(=O)N1CCC[C@H](Oc2cc(-c3cnc(N)nc3N)nc(N3CCOCC3)n2)C1 [Compound 72] |
| > 6.00 | > 6.00 | > 6.00 |  |  |  | Nc1ncc(-c2cc(O[C@@H]3CCOC3)nc(N3CCOCC3)n2)c(N)n1 [Compound 108] |
| > 6.00 | > 6.00 | > 5.00 |  |  |  | CC(C)OC(=O)N1CCC[C@H](Oc2cc(-c3cnc(N)nc3N)nc(N3CCOCC3)n2)C1 [Compound 167] |
| > 6.00 | > 6.00 | > 6.00 |  |  |  | Cc1cc(Nc2cc(-c3cnc(N)nc3N)nc(N3CCOCC3)n2)ccn1 [Compound 53] |
| > 6.00 | > 6.00 | > 5.00 |  |  |  | Nc1ccc(-c2cc(Nc3ccccc3N3CCOCC3)nc(N3CCOCC3)n2)cn1 [Compound 180] |
| > 6.00 | > 6.00 | > 5.00 |  |  |  | CS(=O)(=O)Nc1ccccc1-c1cc(-c2cnc(N)cc2C(F)(F)F)nc(N2CCOCC2)n1 [Compound 159] |
| > 6.00 | > 6.00 | > 6.00 |  |  |  | CS(=O)(=O)c1cccc(-c2cc(-c3cnc(N)nc3N)nc(N3CCOCC3)n2)c1 [Compound 125] |
| > 6.00 | > 6.00 | > 5.00 |  |  |  | CC(=O)c1ccccc1Nc1cc(-c2ccc(N)nc2)nc(N2CCOCC2)n1 [Compound 172] |
| > 6.00 | > 6.00 | > 6.00 |  |  |  | CC(C)(C)OC(=O)N1CCC(Oc2cc(-c3cnc(N)nc3N)nc(N3CCOCC3)n2)CC1 [Compound 28] |
| > 6.00 | > 6.00 | > 6.00 |  |  |  | CC(C)OC(=O)N1CCC(Oc2cc(-c3cnc(N)[nH]c3=O)nc(N3CCOCC3)n2)CC1 [Compound 32] |
| > 6.00 | > 6.00 | > 6.00 |  |  |  | CC(C)N1CC[C@@H](Oc2ccc(Nc3cc(-c4cnc(N)cc4C(F)(F)F)nc(N4CCOCC4)n3)cn2)C1 [Compound 86] |
| > 6.00 | > 6.00 | > 5.00 |  |  |  | Nc1cc(C(F)(F)F)c(-c2cc(N3CCOCC3Cc3ccccc3)nc(N3CCOCC3)n2)cn1 (stereo not drawn) [Compound 113] |
| > 6.00 | > 6.00 | > 5.00 |  |  |  | Nc1cc(C(F)(F)F)c(-c2cc(O[C@@H]3CCOC3)nc(N3CCOCC3)n2)cn1 [Compound 25] |
| > 6.00 | > 6.00 | > 6.00 |  |  |  | Nc1ncc(-c2cc(OC3CCN(C(=O)c4ccccc4)CC3)nc(N3CCOCC3)n2)c(=O)[nH]1 [Compound 48] |
| > 6.00 | > 6.00 | > 6.00 |  |  |  | CC(=O)N1CCC(Oc2cc(-c3cnc(N)nc3C(F)(F)F)nc(N3CCOCC3)n2)CC1 [Compound 119] |
| > 6.00 | > 6.00 | > 6.00 |  |  |  | CS(=O)(=O)c1cccc(-c2cc(-c3cnc(N)nc3C(F)(F)F)nc(N3CCOCC3)n2)c1 [Compound 143] |
| > 6.00 | > 6.00 | > 6.00 |  |  |  | Nc1ncc(-c2cc(Nc3ccc(N4CCNCC4)nc3)nc(N3CCOCC3)n2)cn1 [Compound 9] |
| > 6.00 | > 6.00 | > 5.00 |  |  |  | Nc1cc(C(F)(F)F)c(-c2cc(-c3cncc(OC4CCNCC4)c3)nc(N3CCOCC3)n2)cn1 [Compound 88] |
| > 6.00 | > 6.00 | > 6.00 |  |  |  | CC(C)N1CCC(Oc2ccc(Nc3cc(-c4cnc(N)nc4C(F)(F)F)nc(N4CCOCC4)n3)cn2)CC1 [Compound 41] |
